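Values below derive from 48-hour exposures of cells grown in 96-well plates, with endpoints linearly interpolated between the two concentrations bracketing the appropriate inhibition level. GI50 marks 50% less growth.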 Active and inactive are the calls of the source. Rule as the data show it: active = GI50 up to about 1.1 µM and inactive = higher.
Columns and labels:
Assay in all cases: inhibition of tumour cell growth, NCI panel, 48 h
[1] = system: HOP-62
[2] = system: UO-31
[3] = system: BT-549
[4] = system: MDA-MB-435
[5] = system: RXF 393
[6] = system: SK-OV-3
[7] = system: CCRF-CEM
[8] = system: SF-539
[9] = system: HL-60
[10] = system: HT-29
[11] = system: OVCAR-8
[12] = system: NCI-H522
[13] = system: OVCAR-4
[14] = system: OVCAR-5
[15] = system: PC-3
[16] = system: MDA-N
[17] = system: ACHN
[18] = system: MDA-MB-231
[19] = system: M14
[20] = system: A498
[21] = system: CAKI-1
[22] = system: HOP-92
[23] = system: LOX IMVI
[24] = system: SF-268
[25] = system: UACC-257
[26] = system: EKVX
[27] = system: SK-MEL-28
[28] = system: DU-145
[29] = system: OVCAR-3
[30] = system: K562
[31] = system: Malme-3M
[32] = system: SK-MEL-2
[33] = system: COLO 205
[34] = system: SF-295
[35] = system: 786-0
[36] = system: HCC 2998
[37] = system: Hs-578T
[38] = system: U-251
[39] = system: NCI-H23
[40] = system: A549
[41] = system: NCI-H460
[42] = system: SN12C
[43] = system: KM12
[44] = system: HCT-15
[45] = system: T47D
[46] = system: NCI/ADR-RES
[47] = system: IGROV-1
[48] = system: RPMI-8226
[49] = system: SK-MEL-5
[50] = system: SNB-19
[51] = system: HCT-116
[52] = system: MCF7
[53] = system: NCI-H226
[54] = system: SW-620
[55] = system: TK-10
[56] = system: MOLT-4
[57] = system: UACC-62

## Cc1nnc2n1N=C(c1cc(F)c(Cl)cc1Cl)/C(=C/c1ccc3c(c1)OCO3)S2
[1]
  GI50: 37.1 µM (inactive)
[2]
  GI50: > 100 µM (inactive)
[3]
  GI50: > 100 µM (inactive)
[4]
  GI50: 45.9 µM (inactive)
[5]
  GI50: 51.3 µM (inactive)
[6]
  GI50: > 100 µM (inactive)
[7]
  GI50: 43 µM (inactive)
[8]
  GI50: > 100 µM (inactive)
[9]
  GI50: 40.4 µM (inactive)
[10]
  GI50: 36.1 µM (inactive)
[11]
  GI50: 65.3 µM (inactive)
[12]
  GI50: 20.7 µM (inactive)
[13]
  GI50: 51.6 µM (inactive)
[14]
  GI50: 32.1 µM (inactive)
[15]
  GI50: 63.1 µM (inactive)
[16]
  GI50: 39.3 µM (inactive)
[17]
  GI50: 63.5 µM (inactive)
[18]
  GI50: > 100 µM (inactive)
[19]
  GI50: > 100 µM (inactive)
[20]
  GI50: 45.5 µM (inactive)
[21]
  GI50: 69.7 µM (inactive)
[22]
  GI50: 65.8 µM (inactive)
[23]
  GI50: 33.1 µM (inactive)
[24]
  GI50: 88.9 µM (inactive)
[25]
  GI50: 71.1 µM (inactive)
[26]
  GI50: 23.1 µM (inactive)
[27]
  GI50: > 100 µM (inactive)
[28]
  GI50: 72.8 µM (inactive)
[29]
  GI50: 34.4 µM (inactive)
[30]
  GI50: > 100 µM (inactive)
[31]
  GI50: > 100 µM (inactive)
[32]
  GI50: 44 µM (inactive)
[33]
  GI50: > 100 µM (inactive)
[34]
  GI50: 53.3 µM (inactive)
[35]
  GI50: 47.4 µM (inactive)
[36]
  GI50: 48.4 µM (inactive)
[37]
  GI50: 71.6 µM (inactive)
[38]
  GI50: 56.6 µM (inactive)
[39]
  GI50: 90.8 µM (inactive)
[40]
  GI50: > 100 µM (inactive)
[41]
  GI50: > 100 µM (inactive)
[42]
  GI50: 53.7 µM (inactive)
[43]
  GI50: > 100 µM (inactive)
[44]
  GI50: 52.5 µM
[45]
  GI50: 70.6 µM (inactive)
[46]
  GI50: 69.2 µM (inactive)
[47]
  GI50: 50.7 µM (inactive)
[48]
  GI50: 43.6 µM (inactive)
[49]
  GI50: > 100 µM (inactive)
[50]
  GI50: > 100 µM (inactive)
[51]
  GI50: 47.8 µM (inactive)
[52]
  GI50: 35.5 µM (inactive)
[53]
  GI50: > 100 µM (inactive)
[54]
  GI50: > 100 µM (inactive)
[55]
  GI50: > 100 µM (inactive)
[56]
  GI50: 38.1 µM (inactive)
[57]
  GI50: 62.8 µM (inactive)

## O=C1C=CC(=O)c2c1ccc1c3ccccc3n(CCCCCCCCn3c4ccccc4c4ccc5c(c43)C(=O)C=CC5=O)c21
[1]
  GI50: > 100 µM (inactive)
[3]
  GI50: > 100 µM (inactive)
[4]
  GI50: > 100 µM (inactive)
[5]
  GI50: > 100 µM (inactive)
[6]
  GI50: > 100 µM (inactive)
[7]
  GI50: > 100 µM (inactive)
[8]
  GI50: > 100 µM (inactive)
[9]
  GI50: > 100 µM (inactive)
[10]
  GI50: > 100 µM (inactive)
[11]
  GI50: > 100 µM (inactive)
[12]
  GI50: > 100 µM (inactive)
[13]
  GI50: > 100 µM (inactive)
[14]
  GI50: > 100 µM (inactive)
[15]
  GI50: > 100 µM (inactive)
[16]
  GI50: > 100 µM (inactive)
[17]
  GI50: > 100 µM (inactive)
[18]
  GI50: > 100 µM (inactive)
[19]
  GI50: > 100 µM (inactive)
[20]
  GI50: > 100 µM (inactive)
[21]
  GI50: > 100 µM (inactive)
[23]
  GI50: > 100 µM (inactive)
[24]
  GI50: > 100 µM (inactive)
[25]
  GI50: > 100 µM (inactive)
[26]
  GI50: > 100 µM (inactive)
[27]
  GI50: > 100 µM (inactive)
[28]
  GI50: > 100 µM (inactive)
[29]
  GI50: > 100 µM (inactive)
[30]
  GI50: > 100 µM (inactive)
[31]
  GI50: > 100 µM (inactive)
[32]
  GI50: > 100 µM (inactive)
[33]
  GI50: > 100 µM (inactive)
[34]
  GI50: > 100 µM (inactive)
[35]
  GI50: > 100 µM (inactive)
[36]
  GI50: > 100 µM (inactive)
[37]
  GI50: 30.8 µM (inactive)
[38]
  GI50: > 100 µM (inactive)
[39]
  GI50: > 100 µM (inactive)
[40]
  GI50: > 100 µM (inactive)
[41]
  GI50: > 100 µM (inactive)
[42]
  GI50: > 100 µM (inactive)
[43]
  GI50: > 100 µM (inactive)
[44]
  GI50: > 100 µM
[45]
  GI50: > 100 µM (inactive)
[46]
  GI50: > 100 µM (inactive)
[47]
  GI50: > 100 µM (inactive)
[48]
  GI50: > 100 µM (inactive)
[49]
  GI50: > 100 µM (inactive)
[50]
  GI50: > 100 µM (inactive)
[51]
  GI50: > 100 µM (inactive)
[52]
  GI50: > 100 µM (inactive)
[53]
  GI50: > 100 µM (inactive)
[54]
  GI50: > 100 µM (inactive)
[55]
  GI50: > 100 µM (inactive)
[56]
  GI50: 85.7 µM (inactive)
[57]
  GI50: > 100 µM (inactive)
